Assay results as given in patent US8591966B2, “Composition containing oils of chamomile flower and black cumin with reduced endotoxins” (Insignion Holdings Limited, priority 2007, dated 2013).
Where two headings read alike, the source gives them in different places.

Experiments:
Format in all cases: cell-based
[1] = test system: prostate cancer cells DU145; test: DNA synthesis (3H-thymidine incorporation) in DU145; settings: Homo sapiens, DU-145
Protocol: (§1) ^3H-Thymidine incorporation: DU145 and U-87MG cells were harvested by trypsinisation and seeded at 10,000 cells/well in a 96 well plate. The cells were incubated with the samples at the required concentrations for 24 hrs and/or 48 hrs at 37° C. and 5% CO2. The cells were pulsed with ^3H-Thymidine (1 μCi/ml) (Perkin Elmer) for 24 hours. After which, they were washed with PBS and fixed twice with methanol for 5 min. The protein was precipitated by 0.3N TCA. After a washing step 150 μl 0.3N NaOH was added for 15 min to lyse the cells. Back ground controls were measured with the samples without cells.
(§2) To detect the incorporated ^3H-Thymidine for the DNA synthesis the samples were transferred in scintillation tubes with scintillation cocktail. The quantification was performed in a Tri-Carb 1900 TR liquid scintillation counter (Packard, USA).
(§3) The effect of several concentrations of samples was measured by determining amount of radiolabel (dpm) under the assay conditions. Dose related values were expressed as a percentage of the positive control values. Sample points were measured as quadruplicates, errors are expressed as standard deviations.

[2] = test system: glioblastoma cells U-87 MG; test: DNA synthesis (3H-thymidine incorporation) in U-87MG; settings: Homo sapiens, 48 h incubation
Protocol: as §1, §2, §3

5-LOX = molecular target: T1, 5-LOX (Homo sapiens, UniProt P09917); test: 5-LOX inhibition assay (LTB4) in differentiated HL-60 granulocytes; settings: reference listed under the 5-LOX IC50 table
T1 construct: endogenous in cells; host or cells: HL-60 (human myeloid leukemia, DSMZ ACC 3), differentiated with DMSO
T1 sequence (P09917 1-674): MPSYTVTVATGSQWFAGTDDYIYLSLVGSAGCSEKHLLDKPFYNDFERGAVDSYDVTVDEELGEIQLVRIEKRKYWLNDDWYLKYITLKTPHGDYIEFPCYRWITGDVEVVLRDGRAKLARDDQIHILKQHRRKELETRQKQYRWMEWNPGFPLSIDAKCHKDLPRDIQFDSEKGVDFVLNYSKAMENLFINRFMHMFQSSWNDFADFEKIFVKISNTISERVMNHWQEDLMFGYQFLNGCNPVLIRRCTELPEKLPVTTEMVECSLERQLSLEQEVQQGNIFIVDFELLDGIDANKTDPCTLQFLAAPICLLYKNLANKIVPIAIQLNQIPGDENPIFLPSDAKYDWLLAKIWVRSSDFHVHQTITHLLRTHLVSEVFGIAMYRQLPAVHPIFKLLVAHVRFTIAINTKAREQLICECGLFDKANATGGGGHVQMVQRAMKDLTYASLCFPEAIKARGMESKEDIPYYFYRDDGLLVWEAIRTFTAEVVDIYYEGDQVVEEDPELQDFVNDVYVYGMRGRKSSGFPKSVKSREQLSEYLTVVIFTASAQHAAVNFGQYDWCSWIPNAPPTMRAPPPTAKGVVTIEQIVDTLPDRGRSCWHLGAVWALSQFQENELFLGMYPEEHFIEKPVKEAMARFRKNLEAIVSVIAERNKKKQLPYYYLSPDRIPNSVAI
Protocol: Human HL-60 cells (myeloid leukemia, DSMZ No ACC 3) were kept at 37° C. in a humidified atmosphere with 5% CO2 and cultured in complete RPMI1640 medium supplemented with 10% fetal calf serum and 1% (v/v) penicillin/streptomycin solution. Cells were differentiated for 6 to 8 days with DMSO (1.2% v/v). The 5-LOX activity assay was carried out as described by Bennet et al. [ref: 2]. Briefly, differentiated cells were harvested, suspended in PBS containing Ca^2+ (1 mM) and glucose (1 mM) and distributed into a 96-well microtiter plate (1×10^6 cells/well).
After preincubation with sample or vehicle for 15 min at room temperature the reaction was started by adding calcium ionophore A 23187 (5 uM) and arachidonic acid (10 uM). All values are final concentrations. […] After neutralization with 50 μl PBS and centrifugation (340×g) for 10 min the LTB4 concentration in the supernatant was determined.
Effects of samples and reference compound [ref: 3] on the activity of 5-LOX were measured by determining the quantity of leukotriene B4 produced under assay conditions. The quantification of leukotriene B4 was performed with Enzyme Immuno Assay (EIA) Kit from Cayman No 520111 (LTB4). The optical densities were measured at wavelength=415 nm. The quantities were calculated using a standard curve of at least 5 different concentrations. Sample points were measured as duplicates. […]

IC50 (5-LOX) [nM]	SMILES	IC50 ([1]; DU145, 24 h incubation, read-out: IC50 (nM) on DNA synthesis, 24 h incubation) [nM]	IC50 ([1]; DU145, 48 h incubation, read-out: IC50 (nM) on DNA synthesis, 48 h incubation) [nM]	IC50 [2] [nM]
–	CC[C@@]1(O)C(=O)OCc2c1cc1n(c2=O)Cc2cc3ccccc3nc2-1 [Camptothecin]	152	7.5	3.32
0.28	C[C@@H]1C[C@H]2[C@@H]3CCC4=CC(=O)C=C[C@]4(C)[C@@]3(F)[C@@H](O)C[C@]2(C)[C@@]1(O)C(=O)CO [Dexamethasone]	–	–	–
